According to patent US20230312587A1, “PTERIDINONE COMPOUNDS AND USES THEREOF” (Vertex Pharmaceutical Incorporated, priority 2018, published 2023):
Read-outs that look alike come from different tables or passages of the source.

How the values were obtained:
[1] = system: Hek293 empty vector; test: In vitro cell viability (CellTiter-Glo), Hek293 empty vector; type: cell-based; details: Homo sapiens
Procedure: (§1) HEK293 (ATCC, catalog #CRL-1573) cells are plated in 10 cm dishes (Corning, product #430167) into 10 mL of complete DMEM cell culture media [DMEM (Life Technologies, product #11960-051) media supplemented with 10% FBS (Hyclone, catalog #SH30071.03), antimycotic/antibiotic (Life Technologies, product #15240-062), and Glutamax (Life Technologies, product #35050-061)] at 3×10^6 cells per dish. Cells are allowed to attach and grow overnight at 37° C. in humidified 5% CO2. Cells are co-transfected with pVSV-G, pCMV-Gag/Pol and pCLPCX_WFS1 using Fugene 6 (Promega, catalog #E2691) according to manufacturer's protocol. Separately, cells are co-transfected with pVSV-G, pCMV-Gag/Pol and pCLPCX to produce control retrovirus. Cell culture media containing retrovirus (viral supernatant) is collected at 48 and 72 hours following transfection, filtered through a 0.4 uM filter, and stored at −80° C.
(§2) HEK293 cells are plated in 6 well plates (Corning, product #3516) in 2 mL of complete DMEM cell culture media at 1×10^5 cells well and allowed to attach and grow overnight at 37° C. in humidified 5% CO2. The following day, the media is replaced with viral supernatant to which 10 ug/ml of Polybrene® (Santa Cruz Biotech, catalog #sc-134220) is added. Viral supernatant is replaced 24 hours later with complete DMEM media. Transduced cells are selected in complete DMEM cell culture media containing 1 microgram/mL of puromycin (Life Technologies, catalog #A1113803).
(§3) HEK293 cells containing empty pCLPCx vector (HEK293 empty), HEK293 cells stably over-expression WFS1 (HEK293 WFS1), HepG2, and HepG2 cells where WFS1 was depleted via CRISPR/Cas9 (HepG2 WFS1 KO) cells were plated into 96-well black plates (Corning, product #3904) in 100 microliters of complete DMEM cell culture media [DMEM (Life Technologies, product #11960-051) media supplemented with 10% FBS (Hyclone, catalog #SH30071.03), antimycotic/antibiotic (Life Technologies, product #15240-062), and Glutamax (Life Technologies, product #35050-061)] at 1,000 (HEK293) or 5,000 (HepG2) cells per well. Cells were allowed to attach and grow overnight, after which compounds are added at various concentrations. Cell viability was assessed 96 hrs after compound addition with CellTiter-Glo reagent (Promega, catalog #G7570) according to manufacturer's protocol and measurement on a Pherastar luminescence plate reader (BMG Labtech).
(§4) The IC50s for the viability of both the Hek293 empty vector and WFS1 over-expressing cells are summarized in Table 47: A<0.06 μM; 0.06 μM≤B<0.6 μM; 0.6 μM≤C<3.0 μM; D≥3.0 μM.

[2] = target: HEK293 membranes over-expressing WFS-1 (Homo sapiens (Human), UniProt O76024); test: Radioligand displacement assay (tritiated Compound 136 probe); type: binding; details: displacement of tritiated Compound 136
Chain of HEK293 membranes over-expressing WFS-1 (O76024 whole entry): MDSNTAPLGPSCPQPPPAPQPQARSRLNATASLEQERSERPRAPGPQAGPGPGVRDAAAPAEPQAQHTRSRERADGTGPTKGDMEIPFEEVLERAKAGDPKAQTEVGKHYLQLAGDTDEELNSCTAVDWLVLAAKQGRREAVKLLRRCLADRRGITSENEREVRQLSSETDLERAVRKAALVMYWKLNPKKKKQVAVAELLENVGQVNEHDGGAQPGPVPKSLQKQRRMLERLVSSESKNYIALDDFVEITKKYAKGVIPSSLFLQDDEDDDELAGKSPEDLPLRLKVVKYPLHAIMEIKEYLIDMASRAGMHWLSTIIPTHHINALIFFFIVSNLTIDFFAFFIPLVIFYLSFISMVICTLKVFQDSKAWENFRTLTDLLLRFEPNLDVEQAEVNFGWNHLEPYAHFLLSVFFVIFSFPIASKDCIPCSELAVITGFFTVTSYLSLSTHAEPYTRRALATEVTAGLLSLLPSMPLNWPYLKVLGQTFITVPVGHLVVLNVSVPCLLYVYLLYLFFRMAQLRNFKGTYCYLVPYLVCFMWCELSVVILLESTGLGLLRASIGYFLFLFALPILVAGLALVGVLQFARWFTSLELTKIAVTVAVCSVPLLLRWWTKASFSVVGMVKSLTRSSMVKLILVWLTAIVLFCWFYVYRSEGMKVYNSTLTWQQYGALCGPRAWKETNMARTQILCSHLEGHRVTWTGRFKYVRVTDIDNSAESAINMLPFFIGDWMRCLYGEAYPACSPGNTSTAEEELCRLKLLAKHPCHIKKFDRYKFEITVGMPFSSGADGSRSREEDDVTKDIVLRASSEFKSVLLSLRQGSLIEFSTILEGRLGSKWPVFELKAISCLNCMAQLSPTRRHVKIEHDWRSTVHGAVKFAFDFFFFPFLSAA
Outline: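 WFS-1-overexpressing HEK293 membranes were preincubated 10 min with compound, then tritiated probe was added for 90 min at room temperature. Bound probe was collected by filtration on PEI-pretreated GF/B filters, washed and scintillation-counted. IC50 came from a 3-parameter fit of bound probe vs compound concentration.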

[3] = system: Hek293 WFS1 over-expressor; test: In vitro cell viability (CellTiter-Glo), Hek293 WFS1 over-expressor; type: cell-based; details: for IC50: Homo sapiens
Procedure: WFS1 cDNA is amplified from clone RC202901 (Origene Technologies) with primers 5′-TCCGCGGCCCCAAGCTTATCGCCATGGACTCCAACACTGC-3′ (SEQ ID NO: 1), 5′-GATGGGCCCAGATCTCGAGTCAGGCCGCCGACAGGAATG-3′ (SEQ ID NO: 2) and cloned into a retroviral mammalian expression vector pCLPCX using HD Infusion (CLONTECH) at Hind3-Xhol sites using standard procedures. The resulting clone is identified as pCLPCX_WFS1.
as §1, §2, §3, §4

[4] = HEK293, read-out: Hek293 empty vector viability
[5] = HEK293, Hek293 WFS1 over-expressing cells, read-out: Hek293 WFS1 viability

Structure (SMILES)	IC50 [2]	IC50 [1, 4]	IC50 [3, 5]	IC50 ([1]; cell viability, Hek293 empty vector, read-out: IC50)	IC50 ([1]; cell viability, Hek293 empty vector, read-out: IC50 class)	IC50 ([3]; HEK293, cell viability, Hek293 WFS1 over-expressor, read-out: IC50)	IC50 ([3]; HEK293, cell viability, Hek293 WFS1 over-expressor, read-out: IC50 class)	reduction in the IC50 on over-expression of WFS1 in Hek293 cells ([3]; cell viability, WFS1 over-expressor vs empty vector)
Cc1nc(N[C@H]2C[C@H](Oc3ccc(F)cc3)C2)nc2c1N(C)C(=O)[C@H](C)N2C [Compound 250, (7S)-2-((trans-3-(4-fluorophenoxy)cyclobutyl)amino)-4,5,7,8-tetramethyl-7,8-dihydropteridin-6(5H)-one]	60 to 600 nM	≥ 3000 nM	60 to 600 nM	–	–	–	–	–
Cc1nc(N[C@H]2C[C@H](Oc3cc(F)c(F)c(F)c3)C2)nc2c1N(C)C(=O)[C@H](C)N2C [Compound 253, (7S)-4,5,7,8-tetramethyl-2-((trans-3-(3,4,5-trifluorophenoxy)cyclobutyl)amino)-7,8-dihydropteridin-6(5H)-one]	< 60 nM	≥ 3000 nM	< 60 nM	15000 nM	≥ 3000 nM	12 nM	< 60 nM	> 1000 fold
Cc1nc(N[C@H]2C[C@@H](Sc3ccc(F)cc3)C2)nc2c1N(C)C(=O)[C@H](C)N2C [Compound 305, (7S)-2-((cis-3-((4-fluorophenyl)thio)cyclobutyl)amino)-4,5,7,8-tetramethyl-7,8-dihydropteridin-6(5H)-one]	60 to 600 nM	≥ 3000 nM	60 to 600 nM	–	–	–	–	–
Cc1nc(N[C@H]2C[C@H](Sc3cc(F)c(F)c(F)c3)C2)nc2c1NC(=O)[C@H](C)N2C [Compound 329, (7S)-4,7,8-trimethyl-2-((trans-3-((3,4,5-trifluorophenyl)thio)-cyclobutyl)amino)-7,8-dihydropteridin-6(5H)-one]	60 to 600 nM	≥ 3000 nM	< 60 nM	–	–	–	–	–
Cc1nc(N[C@H]2C[C@@H](Sc3cc(F)c(F)c(F)c3)C2)nc2c1NC(=O)[C@H](C)N2C [Compound 332, (7S)-4,7,8-trimethyl-2-((cis-3-((3,4,5-trifluorophenyl)thio)cyclobutyl)amino)-7,8-dihydropteridin-6(5H)-one]	60 to 600 nM	≥ 3000 nM	< 60 nM	–	–	–	–	–
Cc1nc(N[C@H]2C[C@@H](COc3ccc(C(F)(F)F)cn3)C2)nc2c1NC(=O)[C@H](C)N2C [Compound 356, (7S)-4,7,8-trimethyl-2-((cis-3-(((5-(trifluoromethyl)pyridin-2-yl)oxy)methyl)cyclobutyl)amino)-7,8-dihydropteridin-6(5H)-one]	600 to 3000 nM	≥ 3000 nM	< 60 nM	–	–	–	–	–
Cc1nc(N[C@H]2C[C@H](Oc3ccc(F)nc3)C2)nc2c1NC(=O)[C@H](C)N2C [Compound 357, (7S)-2-((trans-3-((6-fluoropyridin-3-yl)oxy)cyclobutyl)amino)-4,7,8-trimethyl-7,8-dihydropteridin-6(5H)-one]	60 to 600 nM	≥ 3000 nM	60 to 600 nM	–	–	–	–	–
Cc1nc(NCc2cnn(Cc3ccc(C(F)(F)F)nc3)c2)nc2c1NC(=O)[C@H](C(C)C)N2C [Compound 383, (7S)-7-isopropyl-4,8-dimethyl-2-(((1-((6-(trifluoromethyl)pyridin-3-yl)methyl)-1H-pyrazol-4-yl)methyl)amino)-7,8-dihydropteridin-6(5H)-one]	< 60 nM	≥ 3000 nM	< 60 nM	–	–	–	–	–
Cc1nc(NCc2cnn(Cc3ccc(C(F)(F)F)nc3)c2)nc2c1NC(=O)[C@H](C)N2C(C)C [Compound 385, (7S)-8-isopropyl-4,7-dimethyl-2-(((1-((6-(trifluoromethyl)pyridin-3-yl)methyl)-1H-pyrazol-4-yl)methyl)amino)-7,8-dihydropteridin-6(5H)-one]	< 60 nM	≥ 3000 nM	< 60 nM	–	–	–	–	–
Cc1nc(NCc2cnn(Cc3ccc(C(F)(F)F)nc3)c2)nc2c1NC(=O)[C@H](C1CC1)N2C [Compound 386, (7S)-7-Cyclopropyl-4,8-dimethyl-2-(((1-((6-(trifluoromethyl)pyridin-3-yl)methyl)-1H-pyrazol-4-yl)methyl)amino)-7,8-dihydropteridin-6(5H)-one]	60 to 600 nM	≥ 3000 nM	< 60 nM	–	–	–	–	–

More lines, main results first:

IC50 [2]	Structure (SMILES)	IC50 [1, 4]	IC50 [3, 5]	IC50 ([1]; cell viability, Hek293 empty vector, read-out: IC50)	IC50 ([1]; cell viability, Hek293 empty vector, read-out: IC50 class)	IC50 ([3]; HEK293, cell viability, Hek293 WFS1 over-expressor, read-out: IC50)	IC50 ([3]; HEK293, cell viability, Hek293 WFS1 over-expressor, read-out: IC50 class)	reduction in the IC50 on over-expression of WFS1 in Hek293 cells ([3]; cell viability, WFS1 over-expressor vs empty vector)
60 to 600 nM	Cc1nc(N[C@H]2C[C@@H](Oc3cc(F)c(F)c(F)c3)C2)nc2c1NC(=O)[C@H](C)N2C [Compound 247, (7S)-4,7,8-trimethyl-2-((cis-3-(3,4,5-trifluorophenoxy)cyclobutyl)amino)-7,8-dihydropteridin-6(5H)-one]	≥ 3000 nM	≥ 3000 nM	–	–	–	–	–
60 to 600 nM	Cc1nc(N[C@H]2C[C@@H](COc3cc(F)c(F)c(F)c3)C2)nc2c1NC(=O)[C@H](C)N2C [Compound 257, (7S)-4,7,8-Trimethyl-2-((cis-3-((3,4,5-trifluorophenoxy)methyl)cyclobutyl)-amino)-7,8-dihydropteridin-6(5H)-one]	≥ 3000 nM	< 60 nM	–	–	–	–	–
60 to 600 nM	Cc1nc(N[C@H]2C[C@H](COc3cc(F)c(F)c(F)c3)C2)nc2c1NC(=O)[C@H](C)N2C [Compound 258, (7S)-4,7,8-trimethyl-2-((trans-3-((3,4,5-trifluorophenoxy)methyl)-cyclobutyl)amino)-7,8-dihydropteridin-6(5H)-one]	≥ 3000 nM	60 to 600 nM	–	–	–	–	–
60 to 600 nM	Cc1nc(N[C@@H]2CC[C@@H](Oc3cc(F)c(F)c(F)c3)C2)nc2c1N(C)C(=O)[C@H](C)N2C [Compound 272, (S)-4,5,7,8-tetramethyl-2-(((1R,3R)-3-(3,4,5-trifluorophenoxy)cyclopentyl)amino)-7,8-dihydropteridin-6(5H)-one]	≥ 3000 nM	< 60 nM	–	–	–	–	–
60 to 600 nM	Cc1nc(N[C@H]2C[C@H](Sc3ccc(F)cc3)C2)nc2c1N(C)C(=O)[C@H](C)N2C [Compound 307, (7S)-2-((trans-3-((4-fluorophenyl)thio)cyclobutyl)amino)-4,5,7,8-tetramethyl-7,8-dihydropteridin-6(5H)-one]	≥ 3000 nM	60 to 600 nM	–	–	–	–	–
< 60 nM	Cc1nc(N[C@H]2C[C@H](Oc3ccc(C(F)(F)F)nc3)C2)nc2c1NC(=O)[C@H](C)N2C [Compound 324, (7S)-4,7,8-trimethyl-2-((trans-3-((6-(trifluoromethyl)pyridin-3-yl)oxy)cyclobutyl)amino)-7,8-dihydropteridin-6(5H)-one]	≥ 3000 nM	< 60 nM	–	–	–	–	–
< 60 nM	Cc1nc(N[C@H]2C[C@H](Oc3ccnc(C(F)(F)F)c3)C2)nc2c1NC(=O)[C@H](C)N2C [Compound 335, (7S)-4,7,8-trimethyl-2-((trans-3-((2-(trifluoromethyl)pyridin-4-yl)oxy)cyclobutyl)amino)-7,8-dihydropteridin-6(5H)-one]	≥ 3000 nM	< 60 nM	–	–	–	–	–
60 to 600 nM	Cc1nc(NCc2cnn(Cc3ccc(F)nc3)c2)nc2c1NC(=O)[C@H](C(C)C)N2C [Compound 384, (7S)-2-(((1-((6-fluoropyridin-3-yl)methyl)-1H-pyrazol-4-yl)methyl)amino)-7-isopropyl-4,8-dimethyl-7,8-dihydropteridin-6(5H)-one]	≥ 3000 nM	< 60 nM	–	–	–	–	–
